Results from patent US11744889B2, “Skin microenvironment targeted delivery for promoting immune and other responses” (University of Pittsburgh—Of the Commonwealth System of …, priority 2016, dated 2023).
Entries after “also recorded” stand apart in the source; their conditions may differ.

Assays:
NK1R [1] = biological target: T1, NK1R (Mus musculus, UniProt P30548); assay: Histology of skin and skin draining lymph nodes of B6-WT mice sensitized with DNCB with or without SarSP; type: in vivo
T1 construct: from tissue
T1 sequence (P30548 whole entry): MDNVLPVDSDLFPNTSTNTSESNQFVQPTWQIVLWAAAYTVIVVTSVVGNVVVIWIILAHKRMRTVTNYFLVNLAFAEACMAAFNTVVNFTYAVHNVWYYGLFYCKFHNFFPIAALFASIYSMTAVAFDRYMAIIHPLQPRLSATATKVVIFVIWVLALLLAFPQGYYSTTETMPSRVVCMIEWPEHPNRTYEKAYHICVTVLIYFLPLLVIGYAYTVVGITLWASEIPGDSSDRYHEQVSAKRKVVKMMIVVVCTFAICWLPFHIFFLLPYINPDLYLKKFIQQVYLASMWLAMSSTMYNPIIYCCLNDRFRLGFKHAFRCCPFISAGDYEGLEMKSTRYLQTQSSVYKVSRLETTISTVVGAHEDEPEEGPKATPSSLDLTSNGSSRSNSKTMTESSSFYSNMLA
Excerpt: (A & C: H and E, 200×; Insets, 1,000×; B & D: TB, 200×; Insets 1,000×; NT refers to non-treated mice.)
The effect of different treatments in B6-WT mice was compared with n=6/experimental group.

NK1R [2] = biological target: T1, NK1R; assay: DTH reaction in mice sensitized with DNCB with NK1R agonist SarSP; type: in vivo; conditions: C57BL/6 (B6) mice sensitized with DNCB in the presence of SarSP (10^−9 M)
Excerpt: The effect of different treatments in B6-WT mice was compared with n=6/experimental group. […] The inflammatory infiltrate was composed of leukocytes including polimorphonuclear neutrophils (PMN) and eosinophils as shown in the inset of FIG. 45A.
Means±1SD of 6 mice/experimental group are illustrated, with three independent experiments performed.

NK1R [3] = biological target: T2, NK1R (Homo sapiens, UniProt P25103); assay: Human mixed leukocyte cultures (MLC), skin DC as stimulators of allogeneic naive CD4 T cells, with SarSP; type: cell-based; conditions: SarSP added to MLC
T2 construct: adding SarSP to human mixed leukocyte cultures (MLC) using skin DC as stimulators of allogeneic naïve CD4 T cells; endogenous in cells; host or cells: human skin dendritic cells from skin explants, co-cultured with allogeneic T cells (MLC)
T2 sequence (P25103 whole entry): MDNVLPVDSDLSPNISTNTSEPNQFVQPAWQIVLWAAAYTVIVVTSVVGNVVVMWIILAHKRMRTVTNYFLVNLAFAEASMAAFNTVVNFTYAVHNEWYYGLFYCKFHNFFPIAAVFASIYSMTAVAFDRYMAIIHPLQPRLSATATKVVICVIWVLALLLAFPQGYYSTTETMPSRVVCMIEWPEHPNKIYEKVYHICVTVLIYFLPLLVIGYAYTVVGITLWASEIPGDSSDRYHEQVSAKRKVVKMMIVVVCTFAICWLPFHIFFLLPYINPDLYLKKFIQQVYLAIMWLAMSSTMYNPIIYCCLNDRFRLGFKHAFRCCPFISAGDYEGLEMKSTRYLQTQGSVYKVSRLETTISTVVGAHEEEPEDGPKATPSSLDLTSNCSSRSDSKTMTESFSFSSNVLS
Excerpt: FIGS. 42A and 42B show human skin DCs express functional NK1R. […] Conventional rigid MNA with pyramid geometry can suffer from limited skin penetration, and poor and unreliable cargo delivery capacity compared to the novel microneedle structures disclosed herein. For example, in some embodiments, the delivery systems disclosed herein integrate biologics into dissolvable carboxymethyl-cellulose (CMC) microneedles with obelisk geometries.

[4] = MNA DNBS dose response, ear thickness increase and histology; type: in vivo, mouse; conditions: MNAs with 25 ng, 50 ng and 100 ng tested; ear thickness increase
Experimental: These figures illustrate an exemplary MNA DNBS dose response, by indicating an optimal lowest dose of hapten contained in MNAs capable of inducing effective skin acute and chronic inflammation. In particular, FIG. 51A charts MNA DNBS doses as a percentage of ear thickness increase. FIG. 51B provides histological detail of treated ear skin following the application of MNAs with the three different doses of DNBS (25 ng, 50 ng, and 100 ng).

epidermal cells = conditions: 5 mg/g of CMC, about 140 μg per array; 72 hours of exposure
Experimental: Cytoxan® was integrated at a concentration of 5 mg/g of CMC, enabling delivery of approximately about 140 μg per array. […] Living human skin organ cultures were used to assess the cytotoxicity of Cytoxan®. Cytoxan® was delivered by application of arrays to skin explants as we previously described. Arrays and residual material were removed 5 minutes after application, and after 72 hours of exposure, culture living skin explants were cryo-sectioned and fixed.

[5] = system: OVA-specific CTL activity; assay: OVA-specific CTL activity in vivo after CMC-microneedle array immunization; conditions: mice immunized on ears with pyramidal arrays, boosted one week later
[6] = Dye release from MNAs inserted into 4% agar test-gels; type: physicochemical; conditions: dually loaded MNA
Excerpt: To illustrate the delivery of multiple drugs with distinct release kinetics, MNAs were fabricated to delivery two distinct cargos by distinct release kinetics. Specifically, MNAs were fabricated to release the marker Toluidine Blue in an initial burst, followed by a sustained release of the marker FD&C Red40. Dyes were directly loaded in the MNA scaffold matrix (in this case CMC) of the needle tips and in some cases a second dye, encapsulated in a sustained release polymer was layer directly below. MNAs were inserted into 4% agar test-gels and removed after 1 min.
Images of dye diffusion were collected at the indicated time points (FIG. 39A). As shown in FIGS. 39A-C, FD&C Red40 (FIG. 39A) and toluidine blue (FIG. 39B), tracer dyes were tip-loaded in MNAs for immediate release. Alternatively, MNAs were fabricated with toluidine blue tip-loaded and FD&C Red40 encapsulated in a sustained release polymer (FIG. 39C). MNAs were inserted into 4% agar test-gel and removed after 1 min. Images were collected at the indicated time-points. Tip-loaded cargos were rapidly released from the MNAs and dispersed progressively in the gel (FIG. 39A and B). […] Upper panels depict images of microneedles from MNAs before application. The middle images are the imprints of the arrays 1 minute after application and MNA removal. Lower panels depicted the indicated representative magnified images at the indicated time points.

B16 melanoma = assay: Treatment of established B16 skin tumors with MNAs; conditions: MNA once weekly for three weeks; for survival: untreated 100% mortality
Experimental: B16 skin tumors were established in normal mice by injection. Visible established cutaneous tumors were treated once weekly for three weeks with MNAs containing either doxorubicin alone, Poly(I:C) alone, or doxorubicin and Poly(I:C) incorporated into the same MNA. The doxorubicin dose chosen corresponds to an MNA dose that induces apoptosis in human skin without causing necrosis. Tumor growth and survival were measured regularly for the duration of the study.

## Sar^9 Met(O2)^11—SP [SarSP]
NK1R [1]; B6-WT mice
  MC activation and degranulation in skin: triggered MC activation and degranulation
NK1R [1]; agent administered alone, B6-WT mice
  inflammatory response in skin: did not induce inflammatory response
NK1R [1]; co-administration with DNCB
  inflammatory infiltrate in skin draining lymph node: significantly increases the inflammatory infiltrate
NK1R [1]; co-administration with DNCB, B6-WT mice
  inflammatory response in skin: significantly increased the number of inflammatory cells; also recorded: dramatically increased the magnitude of the inflammatory response and tissue damage
NK1R [1]; mouse, in vivo
  number of MC in draining lymph nodes: induced an increased number of MC
NK1R [2]
  DTH reactions: significantly increased DTH reactions
NK1R [3]
  IFN-γ secretion: significantly augmented
  Tcell proliferation: significantly augmented

## O=[N+]([O-])c1ccc(S(=O)(=O)O)c([N+](=O)[O-])c1 [DNBS, 2,4-Dinitrobenzenesulfonic acid]
[4]
  optimal, lowest dose inducing skin acute and chronic inflammation: 50 ng

## O=P1(N(CCCl)CCCl)NCCCO1 (stereo not shown) [Cytoxan®, cyclophosphamide]
Epidermal cells
  apoptosis of epidermal cells (TUNEL): extensive apoptosis of epidermal cells

## soluble OVA: soluble ovalbumin, model antigen, in CMC microneedle arrays
[5]
  OVA-specific CTL activity in vivo: Significant OVA-specific CTL activity

## particulate OVA: particulate ovalbumin, model antigen, in CMC microneedle arrays
[5]
  OVA-specific CTL activity in vivo: Significant OVA-specific CTL activity

## Cc1cc2nc3ccc(N(C)C)cc3[s+]c2cc1N.[Cl-] [Toluidine Blue]
[6]; dye in CMC in the needle tip
  release of tip-loaded dye: released in an initial burst

## COc1cccc2c1C(=O)c1c(O)c3c(c(O)c1C2=O)C[C@@](O)(C(=O)CO)C[C@@H]3O[C@H]1C[C@H](N)[C@H](O)[C@H](C)O1 [doxorubicin]
B16 melanoma
  tumor growth: slowed tumor growth
  survival: 30%

## COc1cc(S(=O)(=O)[O-])c(C)cc1N=Nc1c(O)ccc2cc(S(=O)(=O)[O-])ccc12.[Na+].[Na+] [FD&C Red40]
[6]; dye encapsulated in sustained release polymer
  release of encapsulated dye: released slowly over an extended time period
[6]; dye in underlying layer of sustained release polymer
  period of release from depot: 10 days

## Poly(I:C)
B16 melanoma
  tumor growth: slowed tumor growth
  survival: 50%
